Experimental data as given in article PMC9933715 (Antimicrobial Agents and Chemotherapy, 2023).

What was measured:
Huh7.5 cells = experiment: Cell viability, CellTiter-Glo luminescent assay; details: deconvolution screen, singletons, 50 µM, uninfected Huh7.5
[1] = test system: ZIKV-R2A (strain FSS13025); experiment: microbe, parasite or virus in culture; assay type: cell-based; details: Zika virus, Huh7.5, 48 h, read-out: ZIKV-R2A replication (fold DMSO) Mean
[2] = test system: DENV-R2A (Rluc-expressing DENV, serotype 2 strain 16681); experiment: microbe, parasite or virus in culture; assay type: cell-based, Dengue virus; details: Dengue virus, Huh7.5, 48 h, read-out: DENV-R2A replication (fold DMSO) Mean, deconvolution screen, singletons, 50 µM, Huh7.5, 2 days postinfection

Row | Compound | Cell viability (fold DMSO) Mean (Huh7.5 cells) [fold DMSO] | activity at 50 µM [1] [%] | activity at 50 µM [2] [%]
1 | N[C@@H]1c2ccccc2C[C@@H]1O [PS-4272, N[C@H]1[C@@H](O)Cc2ccccc12] | 1.08 | 102 | 93
2 | OCC1CN(Cc2ccccc2)CCO1 (stereo not drawn) [PS-4274, OCC1CN(Cc2ccccc2)CCO1] | 1.11 | 116 | 100
3 | Cc1ccnn1-c1ccccc1 [PS-4283, Cc1ccnn1c2ccccc2] | 1.07 | 106 | 104
4 | COc1ccc(CO)c(OC)c1 [PS-4550, COc1ccc(CO)c(OC)c1] | 0.92 | 34 | 31
5 | Cc1onc(-c2ccccc2)c1N [PS-4715, Cc1onc(c1N)c2ccccc2] | 1.05 | 113 | 88
6 | Clc1[nH]ccc2nccc1-2 [PS-4776, Clc1[nH]ccc2nccc12] | 1.13 | 100 | 84
7 | O=C(C1CCNCC1)N1CCCC1 [PS-4906, O=C(C1CCNCC1)N2CCCC2] | 0.90 | 117 | 97
8 | Cc1cc(O)nc2ccc(O)cc12 [PS-4921, Cc1cc(O)nc2ccc(O)cc12] | 1.00 | 83 | 92
9 | CN(C)C(=O)c1ccccc1Br [PS-4942, CN(C)C(=O)c1ccccc1Br] | 1.07 | 112 | 107
10 | Nc1ccc(Cl)nn1 [PS-5236, Nc1ccc(Cl)nn1] | 1.18 | 108 | 108
11 | Nc1cccc(Cl)c1 [PS-5280, Nc1cccc(Cl)c1] | 0.98 | 116 | 111
12 | N[C@H]1CC[C@H](O)CC1 [PS-5466, N[C@@H]1CC[C@@H](O)CC1] | 0.99 | 115 | 96
13 | Cc1ncccc1C(=O)O [PS-5559, Cc1ncccc1C(=O)O] | 0.92 | 104 | 102
14 | O=C(O)Cc1ccc(O)cc1 [PS-5568, OC(=O)Cc1ccc(O)cc1] | 0.98 | 103 | 97
15 | COc1ncc(Cl)cc1C#N [PS-5618, COc1ncc(Cl)cc1C#N] | 1.05 | 97 | 108
16 | Clc1cccn2nnnc12 [PS-5645, Clc1cccn2nnnc12] | 0.92 | 101 | 101
17 | Nc1cnc(Cl)cn1 [PS-5654, Nc1cnc(Cl)cn1] | 1.12 | 117 | 97
18 | Cc1ccc(Br)c(N)c1 [PS-5668, Cc1ccc(Br)c(N)c1] | 1.16 | 101 | 102
19 | O=C(O)c1ccc(N2CCCCC2)nn1 [PS-5724, OC(=O)c1ccc(nn1)N2CCCCC2] | 1.01 | 106 | 107
20 | OCc1cccc(CO)n1 [PS-5751, OCc1cccc(CO)n1] | 0.90 | 113 | 100
21 | Nc1cccnc1Cl [PS-5762, Nc1cccnc1Cl] | 1.10 | 109 | 106
22 | N#Cc1cccc(O)c1 [PS-5804, Oc1cccc(c1)C#N] | 1.16 | 115 | 102
23 | CC1(C)CC(O)CC(C)(C)N1 [PS-5856, CC1(C)CC(O)CC(C)(C)N1] | 1.06 | 110 | 97
